Results on 31 molecules are retold here after US20090029995A1, “HETERO BIARYL DERIVATIVES AS MATRIX METALLOPROTEINASE INHIBITORS” (WARNER-LAMBERT COMPANY, priority 2002, published 2009).

One may read the IC50 as the point on the concentration scale where inhibition reaches its midpoint. As usually defined, the melting point is the temperature of the solid-liquid transition.

One data set concerns the target T1, MMP-13 catalytic domain (Homo sapiens, UniProt P45452).
T1 construct: use the catalytic domain of the MMP-13 enzyme, namely matrix metalloproteinase-13 catalytic domain (“MMP-13CD”)
Briefly: MMP-13 catalytic domain inhibition (thiopeptolide substrate hydrolysis). Type of data set: biochemical. The following applies: read-out: MMP-13CD IC50. The source says:
The assays measure the amount by which a test compound reduces the hydrolysis of a thiopeptolide substrate catalyzed by a matrix metalloproteinase enzyme. […] One such assay is described below in Biological Method 1.
Some of the particular methods described below use the catalytic domain of the MMP-13 enzyme, namely matrix metalloproteinase-13 catalytic domain (“MMP-13CD”), rather than the corresponding full-length enzyme, MMP-13.
Thiopeptolide substrates show virtually no decomposition or hydrolysis at or below neutral pH in the absence of a matrix metalloproteinase enzyme. A typical thiopeptolide substrate commonly utilized for assays is Ac-Pro-Leu-Gly-thioester-Leu-Leu-Gly-OEt. […] Assays are carried out with and without matrix metalloproteinase inhibitor compounds, and the amount of hydrolysis is compared for a determination of inhibitory activity of the test compounds.

In the case of `COc1cccc(Cn2nnc(-c3cccc(C(=O)NCc4ccc(C(=O)O)cc4)c3)n2)c1` [Example 4, 4-({3-[2-(3-Methoxy-benzyl)-2H-tetrazol-5-yl]-benzoylamino}-methyl)-benzoic acid], the melting point was in the range of 204 to 206 °C. The half-inhibitory concentration (IC50) on MMP-13 catalytic domain amounted to 39 nM.
`COc1ccc(Cn2nnc(-c3cccc(C(=O)NCc4cccc(C(F)(F)F)c4)c3)n2)cc1` [Example 14, 3-[2-(4-Methoxy-benzyl)-2H-tetrazol-5-yl]-N-(3-trifluoromethyl-benzyl)-benzamide] yielded a melting point of 162 to 163 °C.
Turning to `COc1ccc(Cn2nnc(-c3cccc(C(=O)NCc4ccc5nsnc5c4)c3)n2)cc1` [Example 15, N-2,1,3-Benzothiadiazol-5-ylmethyl-3-[2-(4-methoxy-benzyl)-2H-tetrazol-5-yl]-benzamide], the melting point was 207 to 208 °C.
Still for that read-out and setting: for `COc1ccc(Cn2nnc(-c3cccc(C(=O)NCc4ccnc(OC)c4)c3)n2)cc1` [Example 16, 3-[2-(4-Methoxy-benzyl)-2H-tetrazol-5-yl]-N-(2-methoxy-pyridin-4-ylmethyl)-benzamide] the value was 166 to 169 °C; for `COc1ccc(Cn2nnc(-c3cccc(C(=O)NCc4ccccc4)c3)n2)cc1` [Example 17, N-Benzyl-3-[2-(4-methoxy-benzyl)-2H-tetrazol-5-yl]-benzamide], 169 to 170 °C; for `COc1ccc(Cn2nnc(-c3cccc(C(=O)NCc4ccncc4)c3)n2)cc1` [Example 18, 3-[2-(4-Methoxy-benzyl)-2H-tetrazol-5-yl]-N-pyridin-4-ylmethyl-benzamide], 163 to 164 °C.
In turn, `COc1ccc(CNC(=O)c2cccc(-c3nnn(Cc4ccc(OC)cc4)n3)c2)cc1` [Example 26, N-(4-Methoxy-benzyl)-3-[2-(4-methoxy-benzyl)-2H-tetrazol-5-yl]-benzamide] registered a melting point of 159 to 160 °C.
Same read-out and setting: the result for `C/C=C/Cn1nnc(-c2cccc(C(=O)NCc3ccccc3)c2)n1` [Example 27, N-Benzyl-3-(2-but-2-enyl-2H-tetrazol-5-yl)-benzamide] reads 100 to 101 °C.
`N#Cc1ccc(Cn2nnc(-c3cccc(C(=O)NCc4ccccc4)c3)n2)cc1` [Example 29, N-Benzyl-3-[2-(4-cyano-benzyl)-2H-tetrazol-5-yl]-benzamide] gave a melting point of 191 to 192 °C.
Same read-out and setting: the result for `COC(=O)c1ccc(CNC(=O)c2cc(-c3nnn(Cc4ccc(OC)cc4)n3)ccc2OC)cc1` [Example 35] reads 177 to 178 °C.
On the same count and under the same terms, the result for `COc1ccc(Cn2nnc(-c3ccc(OC)c(C(=O)NCc4ccc(C(=O)O)cc4)c3)n2)cc1` [Example 36, 4-({2-Methoxy-5-[2-(4-methoxy-benzyl)-2H-tetrazol-5-yl]-benzoylamino}-methyl)-benzoic acid] reads 207 to 209 °C; that for `COc1ccc(Cn2nnc(-c3ccc(OC)c(C(=O)NCc4ccc(C(F)(F)F)cc4)c3)n2)cc1` [Example 37, 2-Methoxy-5-[2-(4-methoxy-benzyl)-2H-tetrazol-5-yl]-N-(4-trifluoromethyl-benzyl)-benzamide], 188 to 190 °C.
Molecule `O=S(=O)(O)c1ccc(Cn2nnc(-c3cccc(C#CCc4ccc(F)cc4)c3)n2)cc1` [Example D1, 4-(5-{3-[3-(4-Fluoro-phenyl)-prop-1-ynyl]-phenyl}-tetrazol-2-ylmethyl)-benzenesulfonic acid] had a melting point of 151 to 152 °C. For the same molecule, at MMP-13 catalytic domain, the IC50 turned out to be 4.5 nM.
Consider `O=C(O)COc1ccc(Cn2nnc(-c3cccc(C#CCc4ccc(F)cc4)c3)n2)cc1` [Example D3, [4-(5-{3-[3-(4-Fluoro-phenyl)-prop-1-ynyl]-phenyl}-tetrazol-2-ylmethyl)-phenoxy]-acetic acid], for which the melting point lay in the range of 158.2 to 159.6 °C. For the same molecule, the IC50 on MMP-13 catalytic domain is 7 nM.
Taken in the same sequence, the figures for `NS(=O)(=O)c1ccc(Cn2nnc(-c3cccc(C#CCc4ccccc4)c3)n2)cc1` [Example D4, 4-{5-[3-(3-Phenyl-prop-1-ynyl)-phenyl]-tetrazol-2-ylmethyl}-benzenesulfonamide] were 158 to 159 °C and 150 nM.
Taken in the same sequence, the figures for `CS(=O)(=O)c1ccc(Cn2nnc(-c3cccc(C#CCc4ccc(F)cc4)c3)n2)cc1` [Example D5, 5-{3-[3-(4-Fluoro-phenyl)-prop-1-ynyl]-phenyl}-2-(4-methanesulfonyl-benzyl)-2H-tetrazole] were 101 to 104 °C and 150 nM.
On the same counts, the results for `CS(=O)(=O)c1ccc(Cn2nnc(-c3ccnc(C(=O)NCc4ccncc4)c3)n2)cc1` [Example F3, 4-[2-(4-Methanesulfonyl-benzyl)-2H-tetrazol-5-yl]-pyridine-2-carboxylic acid (pyridin-4-ylmethyl)-amide] are 143 to 144 °C and 22 nM.
On to `CS(=O)(=O)c1ccc(Cn2nnc(-c3ccnc(C(=O)NCc4cncnc4)c3)n2)cc1` [Example F4, 4-[2-(4-Methanesulfonyl-benzyl)-2H-tetrazol-5-yl]-pyridine-2-carboxylic acid (pyrimidin-5-ylmethyl)-amide], for which the melting point is 178 to 179 °C. In addition, at MMP-13 catalytic domain, the IC50 worked out at 210 nM.
Taken in the same sequence, the figures for `N#Cc1ccc(Cn2nnc(-c3ccnc(C(=O)NCc4ccncc4)c3)n2)cc1` [Example F5, 4-[2-(4-Cyano-benzyl)-2H-tetrazol-5-yl]-pyridine-2-carboxylic acid (pyridin-4-ylmethyl)-amide] were 178 to 179 °C and 24 nM.
Taken in the same sequence, the figures for `COc1ccc(CNC(=O)c2cc(-c3nnn(Cc4ccc(S(C)(=O)=O)cc4)n3)ccn2)cc1` [Example F6, 4-[2-(4-Methanesulfonyl-benzyl)-2H-tetrazol-5-yl]-pyridine-2-carboxylic acid 4-methoxy-benzylamide] were 145 to 146 °C and 24 nM.
On the same counts, the results for `CS(=O)(=O)c1ccc(Cn2nnc(-c3ccnc(C(=O)NCc4cccnc4)c3)n2)cc1` [Example F7, 4-[2-(4-Methanesulfonyl-benzyl)-2H-tetrazol-5-yl]-pyridine-2-carboxylic acid (pyridin-3-ylmethyl)-amide] are 174 to 175 °C and 110 nM.
With `CS(=O)(=O)c1ccc(Cn2nnc(-c3ccnc(C(=O)NCc4ccc(Oc5ccccc5)cc4)c3)n2)cc1` [Example F8, 4-[2-(4-Methanesulfonyl-benzyl)-2H-tetrazol-5-yl]-pyridine-2-carboxylic acid 4-phenoxy-benzylamide], the melting point was 100 to 103 °C. The half-maximal inhibitory concentration (IC50) on MMP-13 catalytic domain came to 190 nM.
For the molecule `CS(=O)(=O)c1ccc(Cn2nnc(-c3ccnc(C(=O)NC4CCc5ccccc54)c3)n2)cc1` (stereo not shown) [Example F9, 4-[2-(4-Methanesulfonyl-benzyl)-2H-tetrazol-5-yl]-pyridine-2-carboxylic acid indan-1-ylamide], the melting point is 147 to 150 °C.
In turn, `CS(=O)(=O)c1ccc(Cn2nnc(-c3ccnc(C(=O)NCc4ccc(Cl)c(Cl)c4)c3)n2)cc1` [Example F10, 4-[2-(4-Methanesulfonyl-benzyl)-2H-tetrazol-5-yl]-pyridine-2-carboxylic acid 3,4-dichloro-benzylamide] registered a melting point of 150 to 152 °C. The IC50 on MMP-13 catalytic domain amounted to 47 nM.
On the same counts, the results for `CS(=O)(=O)c1ccc(Cn2nnc(-c3ccnc(C(=O)NCc4ccc(-n5cccn5)cc4)c3)n2)cc1` [Example F11, 4-[2-(4-Methanesulfonyl-benzyl)-2H-tetrazol-5-yl]-pyridine-2-carboxylic acid 4-pyrazol-1-yl-benzylamide] are 173 to 174 °C and 11000 nM.
Taken in the same sequence, the figures for `O=C(O)c1ccc(Cn2nnc(-c3cccc(C#Cc4ccccc4)c3)n2)cc1` [Example G1, 4-[5-(3-Phenylethynyl-phenyl)-tetrazol-2-ylmethyl]-benzoic acid] were 226 to 228 °C and 690 nM.
On the same counts, the results for `O=C(O)c1ccc(Cn2nnc(-c3cccc(C#CCCc4ccccc4)c3)n2)cc1` [Example G2, 4-{5-[3-(4-Phenyl-but-1-ynyl)-phenyl]-tetrazol-2-ylmethyl}-benzoic acid] are 198 to 199 °C and 280 nM.
The molecule `CC(C)CC#Cc1cccc(-c2nnn(Cc3ccc(C(=O)O)cc3)n2)c1` [Example G3, 4-{5-[3-(4-Methyl-pent-1-ynyl)-phenyl]-tetrazol-2-ylmethyl}-benzoic acid] returned a melting point of 192 to 193 °C.
In the case of `O=C(O)c1ccc(Cn2nnc(-c3cncc(C#CCc4ccccc4)c3)n2)cc1` [Example H1, 4-{5-[5-(3-Phenyl-prop-1-ynyl)-pyridin-3-yl]-tetrazol-2-ylmethyl}-benzoic acid], the melting point was 211 to 213 °C. For the same molecule, the concentration for half-maximal inhibition (IC50) at MMP-13 catalytic domain amounted to 10 nM.
Taken in the same sequence, the figures for `O=C(O)Cc1ccc(Cn2nnc(-c3cccc(C#CCc4ccc(F)cc4)c3)n2)cc1` [Example I1, [4-(5-{3-[3-(4-Fluoro-phenyl)-prop-1-ynyl]-phenyl}-tetrazol-2-ylmethyl)-phenyl]-acetic acid] were 158 to 159 °C and 2.6 nM.
Taken in the same sequence, the figures for `O=C(O)C1CCC(Cn2nnc(-c3cccc(C#CCc4ccc(F)cc4)c3)n2)CC1` (stereo not shown) [Example I2, 4-(5-{3-[3-(4-Fluoro-phenyl)-prop-1-ynyl]-phenyl}-tetrazol-2-ylmethyl)-cyclohexanecarboxylic acid] were 172 to 173 °C and 1.2 nM.
